Assay results published in patent publication US20120009674A1, “Use of a GSK-3 Inhibitor to Maintain Potency of Cultured Cells” (ABT Holding Company, priority 2005, published 2012).
Each block holds one molecule with its values, some of them ahead of it.

Columns and labels:
CDK2-cyclin A = CDK2-cyclin A (Homo sapiens, UniProt P24941); settings: at 10 μM; cited from earlier work
[1] = Stability of BIO in culture, expansion media without cells (mass spectroscopy); format: physicochemical; settings: absence of cells, 72-hour period, 1 μM BIO, 37° C., 18% O2, 5% CO2, expansion media
[2] = tested on: human embryonic stem (ES) cell; settings: human ES cells; Oct-3a, Rex-1 and Nanog expression; cited from earlier work
Oct-3A = assay: Western blot of Oct-3A protein in BIO treated MAPCs; format: cell-based, human; settings: BIO treated vs untreated MAPCs from the same donor, FIG. 3
[3] = tested on: mouse embryonic stem (ES) cell; settings: mouse ES cells; Oct-3a, Rex-1 and Nanog expression; cited from earlier work
[4] = tested on: mouse mesodermal stem cell line; settings: Chen, S., et al. (2003); cited from earlier work

Compound: CN(C)CCC(=O)Nc1n[nH]c2nnc(-c3ccccc3)cc12 [Pyrazolopyridine 9]
Inhibits CDK2-cyclin A (CDK2-cyclin A): A (90% at 10 μM)

Compound: CCCC(=O)Nc1n[nH]c2ncc(-c3ccccc3F)cc12 [Pyrazolopyridine 18]
Inhibits CDK2-cyclin A (CDK2-cyclin A): A (95% at 10 μM)

BIO stable (native BIO remaining) [1]: approximately 95%
Compound: O=C1Nc2cc(Br)ccc2/C1=C1/Nc2ccccc2/C1=N\O [BIO, 6-bromoindirubin-3′-oxime]
maintenance of ES cultures in an undifferentiated pluripotent state [2]: able to substitute for the addition of feeder cultures or addition of exogenous cytokines in maintaining the ES cultures in an undifferentiated pluripotent state
Oct-3A protein level (Western blot) (Oct-3A): increases or protects the amount of detectable Oct-3A
maintenance of ES cultures in an undifferentiated pluripotent state [3]: able to substitute for the addition of feeder cultures or addition of exogenous cytokines in maintaining the ES cultures in an undifferentiated pluripotent state

Compound: c1nc2nc(Nc3ccc(N4CCOCC4)cc3)nc(NC3CCCCC3)c2[nH]1 [reversine]
de-differentiation of committed myoblast [4]: acted to “de-differentiate” the cell line from a committed myoblast, back to the multipotent precursor
